The subject of one assay is S. pneumoniae. Put plainly: Kill or inhibit growth/proliferation; morphology, biofilm and growth disruption (Tables 5, 6). Note: test concentration or dose not given here. More on the design: key: A: Peptide aggregates; B: Less hyphal formation; Clumps; Diffuse clumps and small polyps; F: Diffuse growth; H: Thin; I: Growth inhibition; Microcolony formation; Rippled; Small polyps; Thick; W: Halo formation on top, microlonies on bottom. Type of assay: cell-based, Streptococcus pneumoniae.

Another assay deals with C. albicans. The description is as above. Also noted: key: A: Peptide aggregates; B: Less hyphal formation; Clumps; Diffuse clumps and small polyps; F: Diffuse growth; H: Thin; I: Growth inhibition; Microcolony formation; Rippled; Small polyps; Thick; W: Halo formation on top, microlonies on bottom. Type of assay: cell-based, Candida albicans.
In assay [1] the test system is microorganisms (e.g., bacteria, yeasts, fungi). The assay can be described thus: Targeting peptide binding to target microorganisms (Table 3). The settings on record: preferably 1x PBS; for Target(s) (microorganisms bound by the targeting peptide): peptide binding in aqueous buffers varied by peptide solubility.
In the next assay the test system is E. coli. Put plainly: Kill or inhibit growth/proliferation; morphology, biofilm and growth disruption (Tables 5, 6). Note: test concentration or dose not given here. In kind it is cell-based, Escherichia coli. Also noted: key: A: Peptide aggregates; B: Less hyphal formation; Clumps; Diffuse clumps and small polyps; F: Diffuse growth; H: Thin; I: Growth inhibition; Microcolony formation; Rippled; Small polyps; Thick; W: Halo formation on top, microlonies on bottom.

Another assay has as its system MRSA. The description is as above. Type of assay: cell-based, Methicillin-resistant Staphylococcus aureus. Also noted: key: A: Peptide aggregates; B: Less hyphal formation; Clumps; Diffuse clumps and small polyps; F: Diffuse growth; H: Thin; I: Growth inhibition; Microcolony formation; Rippled; Small polyps; Thick; W: Halo formation on top, microlonies on bottom. Note: test concentration or dose not given here.
The next assay relates to microorganisms. Put plainly: Peptides having multiple activities (targeting/binding, antimicrobial, growth or phenotype altering). The text has this:
In certain embodiments, peptides described herein can have multiple activities. Thus for example, a peptide can have both binding/targeting activity and antimicrobial activity. Such peptides can be used, e.g., in a chimeric construct, for any or all of these properties. Thus, for example, a peptide designated “B” in Table 8 can be used as a targeting peptide. If it is also designated G or M it can also be used for antimicrobial activity.

For another assay, the system named is S. epidermidis. Put plainly: Kill or inhibit growth/proliferation; morphology, biofilm and growth disruption (Tables 5, 6). Note: test concentration or dose not given here. In kind it is cell-based, Staphylococcus epidermidis. More on the design: key: A: Peptide aggregates; B: Less hyphal formation; Clumps; Diffuse clumps and small polyps; F: Diffuse growth; H: Thin; I: Growth inhibition; Microcolony formation; Rippled; Small polyps; Thick; W: Halo formation on top, microlonies on bottom.

A further assay deals with E. faecalis. Described as above. In kind it is cell-based, Enterococcus faecalis. More on the design: key: A: Peptide aggregates; B: Less hyphal formation; Clumps; Diffuse clumps and small polyps; F: Diffuse growth; H: Thin; I: Growth inhibition; Microcolony formation; Rippled; Small polyps; Thick; W: Halo formation on top, microlonies on bottom.
The subject of another assay is B. subtilis. The assay is described as above. Type of assay: cell-based, Bacillus subtilis. More on the design: key: A: Peptide aggregates; B: Less hyphal formation; Clumps; Diffuse clumps and small polyps; F: Diffuse growth; H: Thin; I: Growth inhibition; Microcolony formation; Rippled; Small polyps; Thick; W: Halo formation on top, microlonies on bottom.
For the next assay, the system named is M. luteus. The assay is described as above. Also noted: key: A: Peptide aggregates; B: Less hyphal formation; Clumps; Diffuse clumps and small polyps; F: Diffuse growth; H: Thin; I: Growth inhibition; Microcolony formation; Rippled; Small polyps; Thick; W: Halo formation on top, microlonies on bottom. In kind it is cell-based, Micrococcus luteus. Note: test concentration or dose not given here.
In another assay the test system is C. jejuni. The description is as above. Type of assay: cell-based, Campylobacter jejuni. More on the design: key: A: Peptide aggregates; B: Less hyphal formation; Clumps; Diffuse clumps and small polyps; F: Diffuse growth; H: Thin; I: Growth inhibition; Microcolony formation; Rippled; Small polyps; Thick; W: Halo formation on top, microlonies on bottom. Note: test concentration or dose not given here.
Another assay concerns C. jeikeium. The description is as above. In kind it is cell-based, Corynebacterium jeikeium. More on the design: key: A: Peptide aggregates; B: Less hyphal formation; Clumps; Diffuse clumps and small polyps; F: Diffuse growth; H: Thin; I: Growth inhibition; Microcolony formation; Rippled; Small polyps; Thick; W: Halo formation on top, microlonies on bottom. Note: test concentration or dose not given here.

Entries after “also recorded” stand apart in the source; their conditions may differ. Ends that are not written are not given here.
Throughout, for Organism, effect (morphology, biofilm and growth disruption): test concentration or dose not given here.
Throughout, for Organism, effect: test concentration or dose not given here.

Take “PF-647 (chain 1 GTFLGQKCAAATAS; chain 2 GTFLGQKCAAATAS; Peptide with targeting and/or antimicrobial activity)”: the “Organism, effect (morphology, biofilm and growth disruption)” value in the assay with S. pneumoniae is “S. pneumoniae (R)”; with C. albicans it was “C. albicans (B)”. Also, in assay [1], the “Target(s) (microorganisms bound by the targeting peptide)” value is listed as “Mycobacteria spp”.
As for “PF-528: peptide having multiple activities (chain 1 LVDVVVLIRRHLPKSCS-NH2; chain 2 LVDVVVLIRRHLPKSCS-NH2; cysteine pairing not given here)”, the “Organism, effect” value in the assay on E. coli is “E. coli (H)”; with S. pneumoniae, “S. pneumoniae (R)”; with C. albicans, “C. albicans (C)”; with MRSA, “MRSA (H)”; in the assay with S. epidermidis, “S. epidermidis (H)”. Besides, the “Target(s)” value in [1] (microorganism(s) the targeting peptide binds, peptide binding conducted in aqueous buffers varied by peptide solubility) was “S. epidermidis and P. aeruginosa and C. albicans and MRSA and S. pneumoniae and E. faecalis”. In addition, the Activities entry in the assay with microorganisms was “G B”.
“PF-698 (chain 1 SSGRAGVKCRRPTGR; chain 2 SSGRAGVKCRRPTGR; Peptide with targeting and/or antimicrobial activity)”: the “Organism, effect (morphology, biofilm and growth disruption)” value in the assay on S. pneumoniae is listed as “S. pneumoniae (A)”; in the assay with C. albicans, “C. albicans (H)”; with E. faecalis, “E. faecalis (A)”. Moreover, the “Target(s) (microorganisms bound by the targeting peptide)” value in assay [1] is listed as “Mycobacteria spp”.
Regarding “PF-639: peptide having multiple activities (chain 1 QATQIKSWIDRLLVSED; chain 2 QATQIKSWIDRLLVSED; Peptide with targeting and/or antimicrobial activity)”, the “Organism, effect” value in the assay with S. pneumoniae is recorded as “S. pneumoniae (I)”; with C. albicans, “C. albicans (B)”; in the assay on MRSA it was “MRSA (R)”; in the assay with E. faecalis, “E. faecalis (H)”. Also, the “Target(s) (microorganisms bound by the targeting peptide)” value in assay [1] was “S. pneumoniae; also recorded: C. jeikeium”. Moreover, the Activities entry in the assay with microorganisms is “G B”.
For “PF-654 (chain 1 LSGRLAGRR; chain 2 LSGRLAGRR; Peptide with targeting and/or antimicrobial activity)”, the “Organism, effect (morphology, biofilm and growth disruption)” value in the assay with S. pneumoniae is recorded as “S. pneumoniae (A)”; in the assay with C. albicans, “C. albicans (B)”; in the assay with MRSA, “MRSA (R)”. Further, the “Target(s) (microorganisms bound by the targeting peptide)” value in assay [1] is “Mycobacteria spp”.
Regarding “PF-526: peptide having multiple activities (chain 1 VLLLFIFQPFQKQLL-NH2; chain 2 VLLLFIFQPFQKQLL-NH2)”, the “Organism, effect” value in the assay on E. coli is listed as “E. coli (R)”; in the assay on S. pneumoniae it was “S. pneumoniae (R)”; in the assay on C. albicans it was “C. albicans (C)”; in the assay on MRSA, “MRSA (C)”; with S. epidermidis, “S. epidermidis (C)”. For the same substance, in the assay with microorganisms, the Activities entry was “G B”.
With “PF-627: peptide having multiple activities (INDLLSYFTLHEK; Peptide with targeting and/or antimicrobial activity)”, the “Organism, effect” value is listed as “S. pneumoniae (I)” with S. pneumoniae; “C. albicans (B)” with C. albicans; “MRSA (R)” in the assay with MRSA; “E. faecalis (H)” with E. faecalis; “S. epidermidis (H)” in the assay with S. epidermidis. Moreover, the “Target(s) (microorganisms bound by the targeting peptide)” value in assay [1] is “S. epidermidis and P. aeruginosa and MRSA and S. pneumoniae and E. faecalis and C. jeikeium”. For the same substance, the Activities entry with microorganisms is recorded as “G B”.
In the case of “PF-645 (chain 1 SNSVQQG; chain 2 SNSVQQG; Peptide with targeting and/or antimicrobial activity)”, the “Organism, effect” value is listed as “S. pneumoniae (I)” in the assay with S. pneumoniae and “C. albicans (B)” in the assay on C. albicans. Besides, the “Target(s) (microorganisms bound by the targeting peptide)” value in assay [1] was “Mycobacteria spp”.
As to “PF-640: peptide having multiple activities (chain 1 MGDINRNF; chain 2 MGDINRNF; Peptide with targeting and/or antimicrobial activity)”, the “Organism, effect” value in the assay with S. pneumoniae is reported as “S. pneumoniae (I)”; with C. albicans it was “C. albicans (B)”; in the assay on E. faecalis it was “E. faecalis (H)”. Besides, in assay [1], the “Target(s) (microorganisms bound by the targeting peptide)” value is given as “C. albicans”. Moreover, in the assay with microorganisms, the Activities result is listed as “G B”.
On to “PF-646 (chain 1 APASPGRRPG; chain 2 APASPGRRPG; Peptide with targeting and/or antimicrobial activity)”, for which, in the assay on S. pneumoniae, the “Organism, effect (morphology, biofilm and growth disruption)” value was “S. pneumoniae (H)”. Also, the “Organism, effect” value in the assay with C. albicans is “C. albicans (B)”. The “Target(s) (microorganisms bound by the targeting peptide)” value in assay [1] is recorded as “Mycobacteria spp”.
In the case of “PF-697 (chain 1 RADARAK; chain 2 RADARAK; Peptide with targeting and/or antimicrobial activity)”, the “Organism, effect (morphology, biofilm and growth disruption)” value with S. pneumoniae is listed as “S. pneumoniae (H)”; in the assay on C. albicans it was “C. albicans (H)”. The “Target(s) (microorganisms bound by the targeting peptide)” value in assay [1] is “Mycobacteria spp”.
As to “PF-556: peptide having multiple activities (chain 1 SLQIRMNTLTAAKASIEAA; chain 2 SLQIRMNTLTAAKASIEAA; Peptide with targeting and/or antimicrobial activity)”, the “Organism, effect” value in the assay on B. subtilis is “B. subtilis (C)”; with M. luteus, “M. luteus (A)”; with S. pneumoniae, “S. pneumoniae (D)”; in the assay on MRSA, “MRSA (M)”; with E. faecalis, “E. faecalis (A)”; in the assay with S. epidermidis it was “S. epidermidis (A)”. In addition, the “Organism, effect” value with C. jejuni was “C. jejuni (R)”; in the assay with C. jeikeium it was “C. jeikeium (D)”. Moreover, the Activities result in the assay on microorganisms is listed as “G B”.
“PF-684 (chain 1 RKLSLASGFALWRRSLV; chain 2 RKLSLASGFALWRRSLV; Peptide with targeting and/or antimicrobial activity)”: the “Organism, effect (morphology, biofilm and growth disruption)” value with S. pneumoniae is listed as “S. pneumoniae (C)”; in the assay with C. albicans, “C. albicans (B)”; in the assay on E. faecalis it was “E. faecalis (A)”. In assay [1], the “Target(s) (microorganisms bound by the targeting peptide)” value is on record as “Mycobacteria spp”.
For “PF-617: peptide having multiple activities (PMNAAEPE; Peptide with targeting and/or antimicrobial activity)”, the “Organism, effect” value is “S. pneumoniae (I)” in the assay on S. pneumoniae, “C. albicans (H)” in the assay on C. albicans and “E. faecalis (H)” in the assay on E. faecalis. The “Target(s) (microorganisms bound by the targeting peptide)” value in assay [1] is reported as “P. aeruginosa; also recorded: C. albicans”. Also, the Activities entry in the assay on microorganisms is “G B”.

The values above are taken from patent US20110039762A1, “TARGETED ANTIMICROBIAL MOIETIES” (C3 JIAN, INC., priority 2009, published 2011).
